According to PMC9136259 (Food Chemistry: X, 2022):

Columns and labels:
[1] = target: T1, xanthine oxidase (XOD, from bovine milk) (Bos taurus, UniProt P80457); assay: intrinsic fluorescence quenching; assay type: binding; conditions: 0.2 M PBS pH 7.5; 298, 304 and 310 K; static quenching
[2] = target: T1, xanthine oxidase (XOD, from bovine milk); assay: xanthine oxidation, absorbance at […] nm, microplate; assay type: biochemical

T1 sequence (P80457 2-1332): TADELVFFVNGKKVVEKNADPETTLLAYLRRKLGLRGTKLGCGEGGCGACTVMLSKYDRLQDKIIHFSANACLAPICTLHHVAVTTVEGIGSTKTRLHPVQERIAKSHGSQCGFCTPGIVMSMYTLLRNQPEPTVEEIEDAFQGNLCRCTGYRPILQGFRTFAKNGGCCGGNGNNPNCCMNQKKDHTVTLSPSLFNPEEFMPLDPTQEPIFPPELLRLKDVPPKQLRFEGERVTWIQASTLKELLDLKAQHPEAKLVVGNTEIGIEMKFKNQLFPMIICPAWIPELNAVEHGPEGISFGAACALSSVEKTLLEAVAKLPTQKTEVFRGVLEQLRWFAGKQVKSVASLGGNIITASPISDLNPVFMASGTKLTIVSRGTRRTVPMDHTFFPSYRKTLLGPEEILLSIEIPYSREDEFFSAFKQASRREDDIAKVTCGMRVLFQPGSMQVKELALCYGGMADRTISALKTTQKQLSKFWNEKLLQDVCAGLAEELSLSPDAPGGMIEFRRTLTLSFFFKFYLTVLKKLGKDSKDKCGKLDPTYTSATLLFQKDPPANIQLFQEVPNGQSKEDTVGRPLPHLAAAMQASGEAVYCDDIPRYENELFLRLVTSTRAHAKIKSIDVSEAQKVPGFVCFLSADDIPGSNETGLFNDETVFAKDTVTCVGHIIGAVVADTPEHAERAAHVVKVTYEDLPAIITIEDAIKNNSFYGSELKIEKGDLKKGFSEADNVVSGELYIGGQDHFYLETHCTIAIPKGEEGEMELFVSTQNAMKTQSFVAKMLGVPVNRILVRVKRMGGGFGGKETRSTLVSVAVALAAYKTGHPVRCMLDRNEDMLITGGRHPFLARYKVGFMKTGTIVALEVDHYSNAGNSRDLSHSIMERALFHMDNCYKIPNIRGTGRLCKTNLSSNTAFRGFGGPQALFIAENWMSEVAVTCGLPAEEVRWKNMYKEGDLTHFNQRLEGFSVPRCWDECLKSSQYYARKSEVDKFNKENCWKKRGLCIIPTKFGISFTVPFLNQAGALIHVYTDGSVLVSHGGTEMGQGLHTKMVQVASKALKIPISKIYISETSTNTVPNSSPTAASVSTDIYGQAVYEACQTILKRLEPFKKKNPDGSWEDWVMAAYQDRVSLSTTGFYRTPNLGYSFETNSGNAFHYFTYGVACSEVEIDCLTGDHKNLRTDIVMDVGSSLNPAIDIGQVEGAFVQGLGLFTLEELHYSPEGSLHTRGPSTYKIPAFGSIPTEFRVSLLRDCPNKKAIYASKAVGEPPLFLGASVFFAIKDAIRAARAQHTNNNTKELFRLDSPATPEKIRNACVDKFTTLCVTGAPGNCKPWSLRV

Row | Structure (SMILES) | intrinsic fluorescence quenching (Stern-Volmer), excitation 280 nm [1] | IC50 [2] [µM]
1 | CC(=O)c1c(O)cccc1O [2,6-Dihydroxyacetophenone] | fluorescence quenching mechanism of DHAP, 4-HPEA and HBA for XOD were a single type | 1240 ± 20
2 | O=Cc1ccc(O)cc1 [4-Hydroxybenzaldehyde] | fluorescence quenching mechanism of DHAP, 4-HPEA and HBA for XOD were a single type | 2.67 ± 0.9
3 | OCCc1ccc(O)cc1 [4-Hydroxyphenethyl alcohol] | fluorescence quenching mechanism of DHAP, 4-HPEA and HBA for XOD were a single type | 24500 ± 800
